Measurements as given in patent US8288139B2, “Sulfotransferase inhibitors” (Seikagaku Corporation, priority 2002, dated 2012).

Biological target: T1, human-derived GalNAc4S6ST (Homo sapiens, UniProt Q7LFX5)
T1 construct: made in house
T1 sequence (Q7LFX5 1-561): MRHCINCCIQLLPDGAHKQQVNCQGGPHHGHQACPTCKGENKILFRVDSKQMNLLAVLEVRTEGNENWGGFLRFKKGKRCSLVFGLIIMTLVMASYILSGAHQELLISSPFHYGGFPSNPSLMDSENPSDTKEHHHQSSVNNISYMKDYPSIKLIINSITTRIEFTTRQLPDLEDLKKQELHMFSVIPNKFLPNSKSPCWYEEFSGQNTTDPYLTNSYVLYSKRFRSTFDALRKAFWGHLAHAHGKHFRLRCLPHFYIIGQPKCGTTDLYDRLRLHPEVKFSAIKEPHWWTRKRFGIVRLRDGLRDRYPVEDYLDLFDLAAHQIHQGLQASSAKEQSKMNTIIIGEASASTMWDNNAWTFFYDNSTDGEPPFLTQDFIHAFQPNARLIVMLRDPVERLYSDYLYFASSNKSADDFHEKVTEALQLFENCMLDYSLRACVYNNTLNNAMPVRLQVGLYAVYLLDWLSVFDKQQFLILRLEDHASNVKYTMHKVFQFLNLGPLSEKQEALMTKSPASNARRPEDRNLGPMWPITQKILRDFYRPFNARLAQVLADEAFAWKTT
Assay: Inhibition of GalNAc4S6ST enzyme activity ([35S]PAPS sulfate transfer to chondroitin sulfate A)
Type: biochemical
Settings: for strength of inhibitory activity upon GalNAc4S6ST, α type and β type of the same formula compared: Substance 1 vs 2, 3 vs 4, 5 vs 6, 50, 125 or 250 nmol in 50 μl reaction; for inhibitory activity upon GalNAc4S6ST (relative value of the enzyme reaction, system without substance = 100%): substance added at 50 nmol, 125 nmol or 250 nmol to 50 μl reaction, 37° C., 20 minutes, values only in FIG. 1-3
Description: The enzyme activity was measured by modifying the method described in J. Biol. Chem., 276, 43894-43900 (2001). As the standard reaction solution, 2.5 μmol of imidazole-HCl (pH 6.8), 0.5 μmol of CaCl2, 1 μmol of reduced type glutathione, 25 nmol in galactosamine equivalent of chondroitin sulfate A (derived from whale cartilage, manufactured by Seikagaku Corporation), 50 pmol of [^35S]PAPS (active sulfate: about 5.0×10^5 cpm: prepared according to Anal Biochem., 148, 303-310 (1985)), and human-derived GalNAc4S6ST prepared according to the method described in J. Biol. Chem., 276, 43894-43900 (2001) were added to 50 μl. The reaction was started by adding each of Substance 1 of the present invention, Substance 2 of the present invention, Substance 3 of the present invention, Substance 4 of the present invention, Substance 5 of the present invention and Substance 6 of the present invention to this reaction system to give a final concentration of 50 nmol, 125 nmol or 250 nmol.
The reaction was carried out by incubating the reaction solution at 37° C. for 20 minutes, and the reaction was terminated by heating the reaction tubes in boiling water for 1 minute. After termination of the reaction, 3 volumes of ethanol containing 1.3% potassium acetate was added thereto to thereby precipitate the ^35S-labeled glycosaminoglycan, followed by gel chromatography using a high performance desalting column according to the method described in J. Biol. Chem., 268, 21968-21974 (1993), and then the radioactivity was measured by using a scintillation counter. A reaction system to which the enzyme was not added was used as the negative control.
By using the enzyme activity of a system to which the substance of the present invention was not added as the positive control and regarding it as 100%, relative values of the enzyme reaction in a system to which the substance of the present invention was added were calculated (Substance 1 of the present invention and Substance 2 of the present invention: FIG. 1, Substance 3 of the present invention and Substance 4 of the present invention: FIG. 2, Substance 5 of the present invention and Substance 6 of the present invention: FIG. 3).

| SMILES | strength of inhibitory activity upon GalNAc4S6ST, α type and β type of the same formula compared | inhibitory activity upon GalNAc4S6ST (relative value of the enzyme reaction, system without substance = 100%) |
| --- | --- | --- |
| CC(=O)NC1[C@H](Oc2ccccc2)OC(CO)[C@H](OS(=O)(=O)O)[C@@H]1O (stereo partly shown) [Substance 6] | stronger inhibitory activity |  |
| CC(=O)NC1[C@H](Oc2ccccc2)OC(COS(=O)(=O)O)[C@H](O)[C@@H]1O (stereo partly shown) [Substance 2] | particularly strong | inhibitory activity was observed |
| CC(=O)NC1[C@@H](Oc2ccccc2)OC(COS(=O)(=O)O)[C@H](O)[C@@H]1O (stereo partly shown) [Substance 1] |  | inhibitory activity was observed |
